From PMC8764033, “Single-molecule analysis of specificity and multivalency in binding of short linear substrate motifs to the APC/C” (Nature Communications, 2022)
Entries after “also recorded” stand apart in the source; their conditions may differ. Where a SMILES comes first, the peptide text is derived from it.

Key:
[1] = target: T1, Cdh1^WD40 (Saccharomyces cerevisiae, UniProt P53197); test: SMOR assay (single-molecule off-rate, TIRF), yeast Cdh1^WD40; type: binding
T1 construct: the WD40 domains of yeast Cdh1 (aa 241–550; pNH144); made in house; host or cells: Sf9 insect cells (baculovirus)
T1 sequence (P53197 241-550): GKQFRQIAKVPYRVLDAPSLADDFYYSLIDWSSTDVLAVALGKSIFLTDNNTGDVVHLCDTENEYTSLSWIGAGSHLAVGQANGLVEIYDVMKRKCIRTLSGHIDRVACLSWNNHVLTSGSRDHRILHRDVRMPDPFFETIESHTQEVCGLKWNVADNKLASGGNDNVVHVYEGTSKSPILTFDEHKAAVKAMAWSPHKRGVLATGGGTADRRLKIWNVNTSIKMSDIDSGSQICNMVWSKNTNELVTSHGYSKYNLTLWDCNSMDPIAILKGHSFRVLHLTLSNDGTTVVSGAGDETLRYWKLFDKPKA
Procedure: Activators were cloned into the pFastBac HT A vector, with an N-terminal 2xStrep-Tag II. For some experiments, we constructed vectors for expression of the WD40 domains of yeast Cdh1 (aa 241–550; pNH144), human Cdh1 (aa 165–484; pNH164), or human Cdc20 (aa 162–484; pNH188). For SMOR, a C-terminal GFP tag was added. Bacmid plasmids are listed in Supplementary Table 3. Plasmids were transformed into DH10Bac cells, and purified Bacmid was used to transfect Sf9 cells to generate P1 baculovirus, which was used to generate P2 virus. SF9 cells were infected with the P2 virus for 48 h. Flash-frozen pellets were lysed by sonication or high-pressure homogenization in lysis buffer B (50 mM Tris-HCl pH 8, 150 mM KCl, 0.5 mM EDTA, 1 mM DTT, 10% Glycerol, EDTA-free protease inhibitor tablet, 1 µg ml^−1 pepstatin A). After the lysate was applied to the StrepTrap column, the column was washed with wash buffer B (lysis buffer B lacking protease inhibitors) and eluted in the same buffer containing 2.5 mM desthiobiotin.
(§1) For all SMOR experiments, 24 × 50 mm high precision glass coverslips (Bioscience Tools) and drilled microscope slides were passivated with a combination of PEG and PEG-biotin (coverslips) or PEG only (slides) following a previously published protocol for SiMPull[31]. Reaction chambers (~20 µl) were created using double-sided tape and epoxy. Protein was immobilized on the surface with 0.2 mg ml^−1 NeutrAvidin in buffer C (20 mM HEPES pH 7.5, 150 mM KCl, 10% glycerol, 0.05% Tween-20, 1 mM DTT). Excess NeutrAvidin was washed away and incubated with either biotin-conjugated mouse monoclonal anti-Strep-Tag II antibody (LSBio, Cat. No. LS-C203632-100) or biotin-conjugated rabbit polyclonal anti-GFP antibody (Rockland, Cat. No. 600-406-215) diluted in buffer C + BSA (0.1 mg ml^−1; Molecular Biology Grade Bovine Serum Albumin). Activator WD40 and activated APC/C (typically 50 µl containing about 65 ng APC/C, of which only a small fraction is immobilized on the glass) were immobilized using anti-Strep-Tag II, while APC/C alone was immobilized with anti-GFP. SMOR results were similar when performed in the buffer (wash buffer B) used in polarization anisotropy.
(§2) To capture dynamic protein–protein interactions, dye-labeled substrate diluted in buffer C + BSA was added to the chamber containing immobilized proteins. Interactions were imaged by TIRF microscopy as described below. For optimal signal-to-noise ratio, peptide concentration was no greater than 1 nM. Protein substrates included Hsl1 aa 667–872 and a C-terminal HaloTag followed by a TAP tag, and were produced by translation in rabbit reticulocyte lysates using TnT Quick Coupled Transcription/Translation System (Promega) (see Supplementary Table 5 for plasmids). Protein was purified with magnetic IgG beads and labeled on the bead with JF549 or JF646 dye so that unbound dye could be washed away. Purified dye-labeled protein was then cleaved from the beads using TEV protease. Before adding substrate to the reaction chamber, oxygen scavenging reagents were added (10 nM protocatechuate-3,4-dioxygenase, 2.5 mM protocatechuic acid, and 1 mM Trolox)[41]. A detailed description of the SMOR analysis pipeline is found in Supplementary Note 1.
Microscopy was performed with a Nikon Eclipse TE2000-E with Perfect Focus with a 100 × 1.49na oil, Apo TIRF DIC N2, 0.13-0.2, WD0.12 objective. Movies were recorded using the Andor iXon DU-897E-CSO. For visualizing GFP-tagged protein, a 491 nm laser was used with an ET525/50 (Chroma) filter for emission. For visualizing JF549-labeled substrate, a 561 nm laser was used with an ET595/50 (Chroma) filter for emission. For visualizing all Cy5-labeled peptides and JF646-labeled substrates, a 640 nm laser was used with an ET685/70 filter (Chroma) for emission. […]

[2] = target: T2, APC/C^apo (Saccharomyces cerevisiae, UniProt P38042+P53068); test: SMOR assay, yeast APC/C^apo (no activator); type: binding; conditions: Supplementary Table 1, single movie
T2 construct: APC/C was purified from yeast cells; made in house; host or cells: S. cerevisiae W303 strain NHY13 (Cdc16-TAP, Apc1-GFP, cdh1 deleted)
Procedure: Yeast strains were derivatives of W303 and are listed in Supplementary Table 2. For APC/C purification, we used a strain carrying Cdc16-TAP and lacking Cdh1 (DOM1126); in most experiments, the strain also carried Apc1-GFP (NHY13). Yeast were grown in YPD media to OD600 = 0.8, collected and flash-frozen. Cells were lysed by bead beating in lysis buffer A (50 mM HEPES pH 7.5, 150 mM KCl, 10% glycerol, 0.2% Triton X-100, 63 µM B-glycerophosphate, 48 µM sodium fluoride, 1 µg ml^−1 pepstatin A, 1 µg ml^−1 leupeptin, 1 µg ml^−1 aprotinin, 1 mM PMSF, 1 mM DTT, 0.5 mM EDTA) and APC/C was purified using magnetic IgG beads. The beads were washed using wash buffer A (20 mM HEPES pH 7.5, 150 mM KCl, 10% Glycerol, 0.05% Triton X-100). After incubation with purified Cdh1 or Cdc20, the APC/C was cleaved off the beads with TEV protease in wash buffer A with 0.05% Tween-20 (for single-molecule studies) or 0.05% Triton X-100 (for ensemble assays such as ubiquitylation) and used immediately.
as §1, §2
Microscopy was performed with a Nikon Eclipse TE2000-E with Perfect Focus with a 100 × 1.49na oil, Apo TIRF DIC N2, 0.13-0.2, WD0.12 objective. Movies were recorded using the Andor iXon DU-897E-CSO. For visualizing GFP-tagged protein, a 491 nm laser was used with an ET525/50 (Chroma) filter for emission. For visualizing JF549-labeled substrate, a 561 nm laser was used with an ET595/50 (Chroma) filter for emission. For visualizing all Cy5-labeled peptides and JF646-labeled substrates, a 640 nm laser was used with an ET685/70 filter (Chroma) for emission. Initially, for each substrate tested, we acquired movies at multiple intervals to deduce the optimal interval to decrease bleaching. µManager version 2.0 was used to control the microscope and record time-lapse movies.

[3] = Supplementary Table 1, replicate 1
[4] = Supplementary Table 1, replicate 2

| Molecule | Dwell Time (in words) [1, 3] | Dwell Time (in words) [1, 4] | Dwell Time (in words) [2] | binding (in words) [1] |
| --- | --- | --- | --- | --- |
| SKAAQFMLYEETAEERNI-K(Cy5) [Acm1 ABBA, Cy5-labeled Cdh1-specific ABBA motif from pseudosubstrate yeast protein Acm1] | single frame | single frame | no binding | – |
| CC[C@H](C)[C@H](NC(=O)[C@H](Cc1ccccc1)NC(=O)[C@H](CO)NC(=O)[C@H](CCCCN)NC(=O)[C@H](CO)NC(=O)[C@H](CCCNC(=N)N)NC(=O)[C@H](CC(N)=O)NC(=O)[C@H](CC(N)=O)NC(=O)[C@H](CC(=O)O)NC(=O)[C@H](CCCCN)NC(=O)[C@H](C)NC(=O)[C@H](C)NC(=O)[C@H](CC(C)C)NC(=O)[C@@H]1CCCN1C(=O)[C@H](CC(C)C)NC(=O)[C@H](CCCNC(=N)N)NC(=O)CNC(=O)[C@H](CCC(N)=O)NC(=O)[C@H](CCC(N)=O)NC(=O)[C@H](CCC(N)=O)NC(=O)[C@H](C)N)C(=O)N[C@@H](CCCCN)C(=O)O [ySecurin D box] (H-AQQQGRLPLAAKDNNRSKSFIK-OH; N-terminus and C-terminus assumed) | single frame | single frame | no binding | – |
| LPKATRKALGTVNRATEKSVK-K(Cy5) [AurKB D box, Cy5-labeled D box peptide of Aurora B kinase] | single frame | single frame | no binding | – |
| CC(C)C[C@H](NC(=O)[C@H](C)NC(=O)[C@H](CCCNC(=N)N)NC(=O)[C@H](CCCNC(=N)N)NC(=O)[C@@H]1CCCN1C(=O)[C@H](CCCCN)NC(=O)[C@H](CO)NC(=O)[C@H](CC(=O)O)NC(=O)[C@@H](N)CCC(N)=O)C(=O)N[C@H](C(=O)N[C@@H](CC(=O)O)C(=O)N[C@H](C(=O)N1CCC[C@H]1C(=O)N[C@H](C(=O)N[C@@H](CC(N)=O)C(=O)N[C@@H](CC(N)=O)C(=O)N[C@@H](CC(N)=O)C(=O)N1CCC[C@H]1C(=O)N[C@@H](CC(C)C)C(=O)N[C@@H](CO)C(=O)N[C@@H](CCC(N)=O)C(=O)N[C@@H](CCCCN)C(=O)O)C(C)C)C(C)C)[C@@H](C)O [Clb5 D box] (H-QDSKPRRALTDVPVNNNPLSQK-OH; N-terminus and C-terminus assumed) | single frame | single frame | no binding | – |
| CC[C@H](C)[C@H](NC(=O)[C@H](CC(=O)O)NC(=O)[C@H](CO)NC(=O)[C@H](C)NC(=O)[C@H](C)NC(=O)[C@H](C)NC(=O)[C@H](C)NC(=O)[C@H](CCCCN)NC(=O)[C@@H]1CCCN1C(=O)[C@H](CCCCN)NC(=O)[C@H](CCC(N)=O)NC(=O)[C@@H](N)CCC(=O)O)C(=O)N[C@H](C(=O)N[C@@H](C)C(=O)N[C@@H](CO)C(=O)N[C@@H](Cc1ccccc1)C(=O)N[C@@H](CC(N)=O)C(=O)N[C@@H](CCCCN)C(=O)N[C@@H](CCSC)C(=O)N[C@@H](CC(N)=O)C(=O)N[C@@H](CCCCN)C(=O)O)[C@@H](C)O [Hsl1 D box mutant] (H-EQKPKAAAASDITASFNKMNK-OH; N-terminus and C-terminus assumed) | no binding | no binding | no binding | negligible binding; also recorded: No binding |
| LIYVDKENGEPGTR-K(Cy5) [hSecurin KEN, Cy5-labeled KEN box peptide of human securin/Pttg1] | no binding | no binding | no binding | No binding |
